{"source": "patent EP0579202A1", "about": "“Sulfhydryl-complexing agents in clinical test elements” (Johnson & Johnson Clinical Diagnostics, Inc., priority 1992, dated 1994)", "key": {"[1]": {"test": "Dry salicylate element with blocking agent in the spreading layer (Example 1)", "conditions": "for reducing sulfhydryl interference: salicylate element; for Salicylate Prediction of Fluid Fluid B: serum with 40 mg/dL salicylate and 100 mg/dL NAC; for Salicylate Prediction of Fluid Fluid B / Salicylate Prediction of Fluid Fluid C / Salicylate Prediction of Fluid Fluid A: agent in spreading layer at given g/m²; for Salicylate Prediction of Fluid Fluid C / Salicylate Prediction of Fluid Fluid A: serum with 40 mg/dL salicylate; for Salicylate Prediction of Fluid Fluid C: one hour exposure to stopper containing 2-benzothiazolethiol; for Salicylate Prediction of Fluid Fluid A: 540 nm, 5 minute, 37°C", "description": "In this example, a dry analytical element formulated for measuring salicylate was used. […] A series of serum samples containing known levels of salicylate were spotted on the various test elements. Absorbance was measured at 540 nm after a 5 minute incubation at 37°C. From this series, a relationship between element absorbance and salicylate level could be made.\nSerum samples containing 40 mg/dL of salicylate (Fluid A) and either 100 mg/dL of NAC (Fluid B) or a one hour exposure to a stopper containing 2-benzothiazolethiol (Fluid C) were then spotted on the elements and their predicted salicylate levels determined."}, "[2]": {"biological_target": "T1, horse radish peroxidase (Armoracia rusticana, UniProt P00433)", "T1 sequence (P00433 31-338)": "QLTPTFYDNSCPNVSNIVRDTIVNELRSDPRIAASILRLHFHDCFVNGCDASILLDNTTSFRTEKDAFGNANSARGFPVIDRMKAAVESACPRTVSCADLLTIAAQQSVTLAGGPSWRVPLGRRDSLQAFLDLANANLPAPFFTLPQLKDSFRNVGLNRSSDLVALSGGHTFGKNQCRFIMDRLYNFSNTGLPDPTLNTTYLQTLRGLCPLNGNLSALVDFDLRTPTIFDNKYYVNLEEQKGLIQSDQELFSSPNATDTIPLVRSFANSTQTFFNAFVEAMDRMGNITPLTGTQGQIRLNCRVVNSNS", "test": "Effect of NAC on peroxidase activity (o-dianisidine dye formation)", "format": "biochemical", "conditions": "1 mM NAC in reaction mixture; 37°C; 430 nm", "description": "One mL reaction solution was prepared containing 100 mM TRIS-C1, pH 7.75, 0.88 mM H₂O₂, and 0.157 mM o-dianisidine. All reagents were combined in the assay cuvette and incubated at 37°C for 10 minutes after which time 0.59 Unit of horse radish peroxidase was added to the solution to initiate reaction. Reactions were monitored spectrophotometrically at 430 nm; millimolar extinction coefficient was 11.3."}, "[3]": {"test": "Salicylate element with and without silver nitrate (Example 3)", "description": "Standard elements (without blocking reagent) were spotted with solutions containing human serum spiked with salicylate in concentrations between 0 and 60 mg/dL. After a 5 minute incubation at 37°C the reflectance density was measured at 540 nm. Predicted salicylate concentration can be determined by fitting a response curve through the reflectance densities produced."}, "[4]": {"test": "Effect of NAC on preformed indicator dye in the SOX reaction (bleaching)", "conditions": "for Final absorbances: 505 nm", "description": "(§1) A standard SOX reaction solution can be prepared containing in 1 mL; 100 mM TRIS-C1, pH 7.75, 200 mM sarcosine, 1.5 mM 4-AAP, 0.02% (by weight) phenol, and 5.9 Units peroxidase. All reagents are combined in the assay cuvette and incubated at 37°C for 10 minutes after which time 1 Unit/mL SOX is added to the solution to initiate reaction. Reactions are observed spectrophotometrically at 505 nm; millimolar extinction coefficient is 17.4.\nWhen determining the effect of NAC on SOX activity, the standard test described above is carried out except that to allow the reaction to go to completion before NAC is added, only 0.1 mM sarcosine is added. Thus, we ensured that all color formation was complete (the sarcosine being depleted). Indicator dye formed in four cuvettes when SOX was added; absorbance endpoint was 1,800. NAC then was added to the cuvettes to the final concentration of 0, 1, 2.5 or 10 mM, and the changes in absorption monitored. Rapidly (less than 10 seconds) each cuvette containing MAC lost color, proportional to MAC concentration. Final absorbances were 1.880, 1.100, 0.600 and 0.150 for cuvette containing 0, 1, 2.5 or 10 mM NAC, respectively."}, "[5]": {"test": "Acetaminophen element with and without maleimide (Example 4)", "conditions": "n-acetylcysteine at 100 mg/dL", "description": "This example is similar to Example 3 except that the analyte is acetaminophen and the element used for testing is the one shown in Table VII below.\nHuman serum spiked with acetaminophen varying in concentration between 1 and 294 mg/dL were spotted on the standard element and the element of the invention. After incubating for 5 minutes at 37°C, reflectance density was measured at 670 nm. Predictions of acetaminophen concentration were obtained as was done for salicylate concentration in Example 3. Differences between the predicted values and the values actually obtained from the two elements (standard and the invention) are shown in Table VIII."}, "[6]": {"test": "Placement of the blocking reagent in the dry salicylate element (Example 2)", "conditions": "Serum w/ Salicylate w/ 100mg/dL N-acetyl cysteine; no blocking reagent", "excerpt": "Placement of the blocking reagent in the proper layer of the dry element is essential for stability. In this example, we placed the blocking reagent (0.5 g/m² of maleimide) in the spreading layer of one element, a location that is relatively hydrophobic in nature, and in the reagent layer of another element. […]"}, "[7]": {"test": "Screening of sulfhydryl-blocking reagents for NAC interference in the standard SOX solution assay", "format": "biochemical", "conditions": "more NAC than N-ethyl maleimide", "description": "as §1\nA variety of materials were selected as examples of reagents that might complex with (bind) the sulfhydryl group of NAC and thus block interference. […] One group contains materials not effective under the conditions tested; a second group appeared to minimize NAC interference, but adversely affected the assay. For example, the solution became gel-like or color formation was impaired. It is possible that this group of materials would be effective if they were incorporated apart from the detection chemistry, for example, either attached to beads or polymers or in a separate layer in a multilayer slide format.\nThe third group contains materials that effectively eliminated NAC interference and had no effect on dye formation or enzyme rate. In each case, the blocking reagent alone (set d) had no effect on the detection system. When this group of blocking reagents and NAC were included in the reaction cuvette, SOX reaction rates improved markedly. […]"}}, "data": [{"molecule": "Gold Chloride", "values": [{"measurement": "reducing sulfhydryl interference", "setting": "[1]", "result": "work well"}, {"measurement": "Salicylate Prediction of Fluid Fluid B", "setting": "[1]", "result": 40, "unit": "mg/dL"}, {"measurement": "Salicylate Prediction of Fluid Fluid C", "setting": "[1]", "result": 40, "unit": "mg/dL"}, {"measurement": "Salicylate Prediction of Fluid Fluid A", "setting": "[1]", "result": 40, "unit": "mg/dL"}]}, {"molecule": "CC(=O)N[C@@H](CS)C(=O)O", "note": "[NAC, N-acetyl cysteine]", "values": [{"measurement": "peroxidase activity, as monitored by dye formation", "setting": "[2]", "result": "significantly inhibited"}, {"measurement": "bias, Standard element", "setting": "[3]; Salicylate at 15 mg/dL, n-acetylcysteine at 102 mg/dL", "result": -11.32, "unit": "mg/dL bias"}, {"measurement": "bias, Standard element", "setting": "[3]; Salicylate at 40 mg/dl, n-acetylcysteine at 102 mg/dL", "result": -40, "unit": "mg/dL bias"}, {"measurement": "Final absorbances", "setting": "[4]; 1 mM NAC added after colour formation complete", "result": 1.100}, {"measurement": "Final absorbances", "setting": "[4]; 2.5 mM NAC added after colour formation complete", "result": 0.600}, {"measurement": "Final absorbances", "setting": "[4]; 10 mM NAC added after colour formation complete", "result": 0.150}, {"measurement": "time in which cuvette lost color", "setting": "[4]; cuvettes with 1, 2.5 or 10 mM NAC", "result": "less than 10 seconds"}, {"measurement": "bias, Standard element", "setting": "[5]; Acetaminophen at 1 mg/dL", "result": -1.0, "unit": "mg/dL bias"}, {"measurement": "bias, Standard element", "setting": "[5]; Acetaminophen at 52 mg/dl", "result": -52, "unit": "mg/dL bias"}, {"measurement": "bias, Standard element", "setting": "[5]; Acetaminophen at 202 mg/dL", "result": -200, "unit": "mg/dL bias"}, {"measurement": "salicylate prediction, Standard Element", "setting": "[6]", "result": 0.0, "unit": "mg/dL"}]}, {"molecule": "Fe(NO)₃", "values": [{"measurement": "Salicylate Prediction of Fluid Fluid B", "setting": "[1]", "result": 0.0, "unit": "mg/dL"}, {"measurement": "Salicylate Prediction of Fluid Fluid C", "setting": "[1]", "result": 17, "unit": "mg/dL"}, {"measurement": "Salicylate Prediction of Fluid Fluid A", "setting": "[1]", "result": 40, "unit": "mg/dL"}]}, {"molecule": "NC(=O)CI", "note": "[Iodoacetamide]", "values": [{"measurement": "Salicylate Prediction of Fluid Fluid B", "setting": "[1]", "result": 12, "unit": "mg/dL"}, {"measurement": "Salicylate Prediction of Fluid Fluid C", "setting": "[1]", "result": 42, "unit": "mg/dL"}, {"measurement": "Salicylate Prediction of Fluid Fluid A", "setting": "[1]", "result": 40, "unit": "mg/dL"}]}, {"molecule": "Silver Nitrate", "values": [{"measurement": "bias, Std w/ AgNO3", "setting": "[3]; Salicylate at 15 mg/dL, 1 hour contact w/ rubber stoppers containing 2-benzothiazolethiol, 0.4 g/m² silver nitrate", "result": 0.3, "unit": "mg/dL bias"}, {"measurement": "bias, Std w/ AgNO3", "setting": "[3]; Salicylate at 15 mg/dL, n-acetylcysteine at 102 mg/dL, 0.4 g/m² silver nitrate in spreading layer", "result": -0.01, "unit": "mg/dL bias"}, {"measurement": "bias, Std w/ AgNO3", "setting": "[3]; Salicylate at 40 mg/dl, 1 hour contact w/ rubber stoppers containing 2-benzothiazolethiol, 0.4 g/m² silver nitrate", "result": 0.3, "unit": "mg/dL bias"}, {"measurement": "bias, Std w/ AgNO3", "setting": "[3]; Salicylate at 40 mg/dl, n-acetylcysteine at 102 mg/dL, 0.4 g/m² silver nitrate", "result": -1.2, "unit": "mg/dL bias"}, {"measurement": "reducing sulfhydryl interference", "setting": "[1]", "result": "work well"}, {"measurement": "Salicylate Prediction of Fluid Fluid B", "setting": "[1]", "result": 40, "unit": "mg/dL"}, {"measurement": "Salicylate Prediction of Fluid Fluid C", "setting": "[1]", "result": 40, "unit": "mg/dL"}, {"measurement": "Salicylate Prediction of Fluid Fluid A", "setting": "[1]", "result": 40, "unit": "mg/dL"}]}, {"molecule": "Sc1nc2ccccc2s1", "note": "[2-benzothiazolethiol]", "values": [{"measurement": "bias, Standard element", "setting": "[3]; Salicylate at 15 mg/dL, 1 hour contact w/ rubber stoppers containing 2-benzothiazolethiol", "result": -12.9, "unit": "mg/dL bias"}, {"measurement": "bias, Standard element", "setting": "[3]; Salicylate at 40 mg/dl, 1 hour contact w/ rubber stoppers containing 2-benzothiazolethiol", "result": -31.5, "unit": "mg/dL bias"}]}, {"molecule": "CCN1C(=O)C=CC1=O", "note": "[N-ethyl-maleimide]", "values": [{"measurement": "enzyme rate", "setting": "[7]", "result": "no improvement in enzyme rate is observed"}]}]}
